According to patent publication US20070155660A1, “Inhibition of voluntary ethanol consumption with selective melanocortin 4-receptor agonists” (priority 2003, published 2007):
Bridge positions count the residues as written; N and C are the ends. Square brackets hold non-standard residues; d marks the D form. Peptide text beside a SMILES is read from it. βAla = NCCC(=O)O

Tests used:
[1] = target: T1, hMC-3R (Homo sapiens, UniProt P41968); assay: Competitive binding assay, [125I]-NDP-α-MSH, CHO cell membranes; details: read-out: Binding Assay IC50 hMC-3R
T1 construct: expressed in transfected cells; host or cells: Chinese hamster ovary (CHO) cells
Experimental: The peptides of the present invention were evaluated for […] in receptor binding assay. Crude membrane preparations were obtained from Chinese hamster ovary cells expressing human MC3, MC4, and MC5 receptors. Cells were rinsed with phosphate-buffered saline (PBS) lacking CaCl2 or MgCl2 (Life Technologies, Gaithersburg, Md., USA), and then detached with enzyme-free dissociation media (Specialty Media, Lavellette, N.J., USA). Cells were pelleted at 2800×g for 10 minutes and resuspended in membrane buffer (20 mM Tris, pH 7.2, 5 mM ethylenediaminetetraacetic acid) with 5 μg/ml leupeptin, 5 μg/ml aprotinin, 40 μg/ml bacitracin, and 25 μg/m pefabloc (Boehringer Mannheim). […]
Binding reactions (total volume=[…]) contained MBB (50 mM Tris, pH 7.2, 2 mM CaCl2, 1 mM MgCl2), 0.1% bovine serum albumin, crude membranes prepared from cells expressing human MC3, MC4, or MC5 receptor, 200 pM of [125I]-NDP-α-MSH (Amersham, Arlington Heighs, Ill., USA), and increasing concentrations of unlabeled test compounds dissolved in dimethylsulfoxide (final concentration=2%). […] Filters were washed 3 times with TNE buffer (50 mM Tris, pH 7.4, 5 mM ethylenediaminetetraacetic acid, 150 mM NaCl), dried and counted by using Microscint-20 in a Topcount scintillation counter (Packard). Nonspecific binding was determined in the presence of 2 μm of unlabeled NDP-α-MSH (Peninsula Laboratories). […]

[2] = target: T2, hMC-1R (Homo sapiens, UniProt Q01726); assay: cAMP assay in CHO cells expressing a human melanocortin receptor; format: cell-based
T2 construct: expressed in transfected cells; host or cells: Chinese hamster ovary (CHO) cells
Experimental: (§1) Chinese hamster ovary cells expressing a human melanocortin receptor were rinsed with calcium-and magnesium-free PBS (Life Technologies), and detached from the tissue culture flasks by 5-minutes incubation with enzyme-free dissociation buffer (S-014-B, Specialty Media). Cells were collected by centrifugation and resuspended in Earle's balanced salt solution (Life Technologies) with addition of 10 mM 4-(2-hydroxyethyl)-1-piperazineethanesulfonic acid (Hepes) buffer, pH 7.5, 5 mM MgCl2, 1 mM glutamine, and 1 mg/ml bovine serum albumin to concentration of 1-5×10^6 cells/ml. Subsequently, cells were counted and the cell suspension was treated with the phosphodiesterase inhibitor 3-isobutyl-1-methylxanthine (to concentration of 0.6 mM).
(§2) A test compound was dissolved in dimethyl sulfoxide (DMSO, 10^−3 to 10^−8 M), diluted with buffer and 0.1 volume of the solution was added to 0.9 volumes of the cell suspension (1 to 5×10^5 cells); final concentration of DMSO was 1%. After 45 minutes at room temperature, cells were lysed by incubation at 100° C. for 5 minutes to release accumulated cAMP. Accumulation of cAMP was measured in an aliquot of the cell lysate with the Amersham (Arlington Heights, Ill.) cAMP detection assay kit (RPA556). The amount of cAMP produced in response to a tested compound was compared to the amount of cAMP produced in response to α-MSH, defined as a 100% agonist. […]

[3] = target: T1, hMC-3R; assay: as above; format: cell-based
Experimental: as §1, §2

[4] = target: T3, MC4R (Homo sapiens, UniProt P32245); assay: Competitive binding assay, [125I]-NDP-α-MSH, CHO cell membranes; parameters: expressed in transfected cells; host or cells: Chinese hamster ovary (CHO) cells
Experimental: (§3) The peptides of the present invention were evaluated for […] in receptor binding assay. Crude membrane preparations were obtained from Chinese hamster ovary cells expressing human MC3, MC4, and MC5 receptors. Cells were rinsed with phosphate-buffered saline (PBS) lacking CaCl2 or MgCl2 (Life Technologies, Gaithersburg, Md., USA), and then detached with enzyme-free dissociation media (Specialty Media, Lavellette, N.J., USA). Cells were pelleted at 2800×g for 10 minutes and resuspended in membrane buffer (20 mM Tris, pH 7.2, 5 mM ethylenediaminetetraacetic acid) with 5 μg/ml leupeptin, 5 μg/ml aprotinin, 40 μg/ml bacitracin, and 25 μg/m pefabloc (Boehringer Mannheim). The cells were […] with 10 strokes by using a motor-driven Teflon-coated pestle in a glass homogenizer at low speed. The resulting cell suspension was centrifuged at 4100×g, 4° C., for 20 minutes. The pellet was resuspended in fresh membrane buffer with protease inhibitors, aliquoted, snap-frozen in liquid nitrogen, and stored at −80° C. The resulting crude membranes were titrated to determine the optimal level necessary for performing binding studies. Results
(§4) Binding reactions (total volume=[…]) contained MBB (50 mM Tris, pH 7.2, 2 mM CaCl2, 1 mM MgCl2), 0.1% bovine serum albumin, crude membranes prepared from cells expressing human MC3, MC4, or MC5 receptor, 200 pM of [125I]-NDP-α-MSH (Amersham, Arlington Heighs, Ill., USA), and increasing concentrations of unlabeled test compounds dissolved in dimethylsulfoxide (final concentration=2%). Reactions were incubated for 1 hour without shaking and then filtered through 96-well filter plates (Packard), presoaked in 1% polyethyleneimine. Filters were washed 3 times with TNE buffer (50 mM Tris, pH 7.4, 5 mM ethylenediaminetetraacetic acid, 150 mM NaCl), dried and counted by using Microscint-20 in a Topcount scintillation counter (Packard). Nonspecific binding was determined in the presence of 2 μm of unlabeled NDP-α-MSH (Peninsula Laboratories). Active peptides were evaluated in three independent experiments.

[5] = target: T4, MC5R (Homo sapiens, UniProt P33032); assay: as above; parameters: expressed in transfected cells; host or cells: Chinese hamster ovary (CHO) cells; details: read-out: Binding Assay IC50 hMC-5R
Experimental: as §3, §4

[6] = target: T3, MC4R; assay: cAMP assay in CHO cells expressing a human melanocortin receptor; format: cell-based; parameters: expressed in transfected cells; host or cells: Chinese hamster ovary (CHO) cells
Experimental: as §1
(§5) A test compound was dissolved in dimethyl sulfoxide (DMSO, 10^−3 to 10^−8 M), diluted with buffer and 0.1 volume of the solution was added to 0.9 volumes of the cell suspension (1 to 5×10^5 cells); final concentration of DMSO was 1%. After 45 minutes at room temperature, cells were lysed by incubation at 100° C. for 5 minutes to release accumulated cAMP. Accumulation of cAMP was measured in an aliquot of the cell lysate with the Amersham (Arlington Heights, Ill.) cAMP detection assay kit (RPA556). The amount of cAMP produced in response to a tested compound was compared to the amount of cAMP produced in response to α-MSH, defined as a 100% agonist. All active peptides were characterized in three independent experiments.

[7] = target: T4, MC5R; assay: as above; format: cell-based; parameters: expressed in transfected cells; host or cells: Chinese hamster ovary (CHO) cells
Experimental: as §1, §5

T3 sequence (P32245 whole entry): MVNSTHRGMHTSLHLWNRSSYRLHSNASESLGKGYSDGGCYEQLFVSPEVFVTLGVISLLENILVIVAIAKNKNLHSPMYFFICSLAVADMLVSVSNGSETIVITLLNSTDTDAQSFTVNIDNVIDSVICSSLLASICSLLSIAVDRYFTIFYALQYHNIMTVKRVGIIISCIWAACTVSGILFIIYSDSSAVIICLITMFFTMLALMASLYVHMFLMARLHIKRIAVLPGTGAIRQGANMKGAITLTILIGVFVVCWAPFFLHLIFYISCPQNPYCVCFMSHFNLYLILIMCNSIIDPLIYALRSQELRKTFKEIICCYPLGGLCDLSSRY
T1 sequence (P41968 whole entry): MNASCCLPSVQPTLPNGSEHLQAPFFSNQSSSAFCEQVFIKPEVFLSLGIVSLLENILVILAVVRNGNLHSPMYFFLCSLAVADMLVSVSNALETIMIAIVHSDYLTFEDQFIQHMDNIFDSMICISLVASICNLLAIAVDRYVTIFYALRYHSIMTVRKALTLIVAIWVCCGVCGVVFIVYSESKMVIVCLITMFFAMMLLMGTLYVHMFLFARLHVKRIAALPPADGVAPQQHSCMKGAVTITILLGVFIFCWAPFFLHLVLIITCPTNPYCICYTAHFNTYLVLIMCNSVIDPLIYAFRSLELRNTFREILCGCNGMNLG
T4 sequence (P33032 whole entry): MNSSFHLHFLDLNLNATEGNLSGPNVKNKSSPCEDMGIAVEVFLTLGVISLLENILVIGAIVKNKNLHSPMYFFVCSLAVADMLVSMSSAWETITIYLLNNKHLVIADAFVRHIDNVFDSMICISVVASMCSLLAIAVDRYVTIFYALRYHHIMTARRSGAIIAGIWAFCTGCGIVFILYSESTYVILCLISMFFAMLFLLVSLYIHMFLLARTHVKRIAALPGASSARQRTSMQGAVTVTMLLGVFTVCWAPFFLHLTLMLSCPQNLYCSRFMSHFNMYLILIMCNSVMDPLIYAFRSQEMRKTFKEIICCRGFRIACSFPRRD
T2 sequence (Q01726 whole entry): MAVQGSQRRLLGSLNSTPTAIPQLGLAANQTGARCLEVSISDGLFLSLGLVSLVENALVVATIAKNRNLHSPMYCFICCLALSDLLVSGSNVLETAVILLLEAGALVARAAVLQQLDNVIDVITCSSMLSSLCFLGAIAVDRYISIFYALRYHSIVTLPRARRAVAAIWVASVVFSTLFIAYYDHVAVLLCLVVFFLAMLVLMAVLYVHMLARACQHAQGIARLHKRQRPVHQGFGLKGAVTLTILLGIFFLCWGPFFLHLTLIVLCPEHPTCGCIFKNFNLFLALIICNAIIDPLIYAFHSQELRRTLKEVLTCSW

**Q.** For `N=C(N)NCCC[C@@H]1NC(=O)[C@@H](Cc2ccccc2)NC(=O)[C@H](Cc2c[nH]cn2)NC(=O)CCNC(=O)CC[C@@H](C(N)=O)NC(=O)[C@H](Cc2c[nH]c3ccccc23)NC1=O` [Example 8] ([βAla]H[dF]RWE-NH2; lactam N-6 (inferred)), which IC50 [1] is on record?
**A.** 0.49 µM

**Q.** What about the EC50 [2] of the same compound?
**A.** 0.011 µM

**Q.** What about the EC50 [3] of the same compound?
**A.** 0.059 µM

**Q.** What about the “Selectivity Binding IC50 3R/4R” value ([4]; ratio of IC50 hMC-3R / hMC-4R) of the same compound?
**A.** 122.5

**Q.** And the “Selectivity Binding IC50 5R/4R” value ([4]; ratio of IC50 hMC-5R / hMC-4R)?
**A.** 1150

**Q.** What about the IC50 ([4]; read-out: Binding Assay IC50 hMC-4R) of the same compound?
**A.** 0.004 µM

**Q.** What about the IC50 [5] of the same compound?
**A.** 4.6 µM

**Q.** What about the EC50 [6] of the same compound?
**A.** 0.00053 µM

**Q.** And the “Selectivity cAMP EC50 1R/4R” value ([6]; ratio of EC50 hMC-1R / hMC-4R)?
**A.** 20.75

**Q.** What about the “Selectivity cAMP EC50 3R/4R” value ([6]; ratio of EC50 hMC-3R / hMC-4R) of the same compound?
**A.** 111

**Q.** And the “Selectivity cAMP EC50 5R/4R” value ([6]; ratio of EC50 hMC-5R / hMC-4R)?
**A.** 3585

**Q.** What about the EC50 [7] of the same compound?
**A.** 1.9 µM
